In patent US7442554B2, “Compositions and methods involving glucocorticoid receptor site II” (Bristol-Myers Squibb Company, priority 2002, dated 2008):
Entries after “also recorded” stand apart in the source; their conditions may differ. Read-outs that look alike come from different tables or passages of the source.

Legend:
[1] = biological target: T1, human full-length glucocorticoid receptor (Homo sapiens, UniProt P04150); assay: GR Site I binding assay (FITC-dexamethasone fluorescence polarization, Panvera kit)
T1 construct: recombinantly expressed human full-length glucocorticoid receptor; purchased Panvera Co., Madison, Wis
T1 sequence (P04150 1-777): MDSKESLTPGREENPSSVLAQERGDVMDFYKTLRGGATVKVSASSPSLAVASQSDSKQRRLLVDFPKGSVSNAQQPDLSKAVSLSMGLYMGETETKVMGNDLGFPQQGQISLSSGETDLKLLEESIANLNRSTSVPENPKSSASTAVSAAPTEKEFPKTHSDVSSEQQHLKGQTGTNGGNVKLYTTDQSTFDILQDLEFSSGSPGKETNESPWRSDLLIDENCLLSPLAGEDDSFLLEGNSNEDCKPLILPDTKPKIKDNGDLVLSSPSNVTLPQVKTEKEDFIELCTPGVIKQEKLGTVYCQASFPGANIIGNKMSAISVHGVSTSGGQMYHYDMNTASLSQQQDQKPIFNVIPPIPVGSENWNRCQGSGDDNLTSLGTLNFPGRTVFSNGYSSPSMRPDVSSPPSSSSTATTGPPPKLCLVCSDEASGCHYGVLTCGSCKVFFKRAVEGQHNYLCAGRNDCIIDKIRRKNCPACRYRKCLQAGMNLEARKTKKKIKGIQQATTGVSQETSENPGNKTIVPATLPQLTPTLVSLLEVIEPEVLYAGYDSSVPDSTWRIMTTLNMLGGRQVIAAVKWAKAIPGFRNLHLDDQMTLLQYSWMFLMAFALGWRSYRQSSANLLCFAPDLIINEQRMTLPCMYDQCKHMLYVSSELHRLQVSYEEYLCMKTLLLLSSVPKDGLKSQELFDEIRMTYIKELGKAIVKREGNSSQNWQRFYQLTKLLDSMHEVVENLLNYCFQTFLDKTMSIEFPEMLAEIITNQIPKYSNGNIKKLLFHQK
Procedure: In order to measure the binding of compounds to Site I on the glucocorticoid receptor a commercially available kit was used (Glucocorticoid receptor competitor assay kit, Panvera Co., Madison, Wis.). Briefly, a cell lysate containing recombinantly expressed human full-length glucocorticoid receptor was mixed with a fluorescently labeled glucocorticoid (4 nM FITC-dexamethasone) plus or minus test molecule. After one hour at room temperature, the fluorescence polarization (FP) of the samples were measured.

[2] = biological target: T2, Site II on GR (Homo sapiens, UniProt P04150); assay: Indirect Site II assay: modified FITC-dexamethasone FP assay with Compound D; type: binding
T2 construct: recombinantly expressed human full-length glucocorticoid receptor; purchased Panvera Co., Madison, Wis
T2 sequence (P04150 1-777): T1 sequence (P04150 1-777)
Procedure: In order to measure the binding of putative Site II compounds to GR we utilized the Glucocorticoid receptor competitor assay kit (Panvera Co., Madison, Wis.) in a modified version of the FITC-dexamethasone fluorescence polarization assay described in Example 2. In this assay, Compound D was added at a concentration of 200 nM, which yields approximately 50% inhibition of FITC-dexamethasone binding. Compound D (an R enantiomer) is Compound 50 of Example 1. Compound D is a ligand of Site II that inhibits via Site II FITC-dexamethasone binding to GR. […] These competitor Site II ligands, all compounds of Example 1 and all S enantiomers, were: Compound A; Compound C, which is the S enantiomer of Compound D; and Compound E, yet another S enantiomer of Example 1. If the competitor compound binds to Site II and displaces Compound D, then FITC-dexamethasone should rebind to GR. […] This assay can therefore measure the relative binding of compounds to the Site II on GR.

[3] = system: AP-1 induced transcriptional activity; assay: Cellular transrepressional assay (AP-1 luciferase reporter, A549 cell, PMA); type: cell-based; conditions: for IC50: read-out: IC50 for transrepression
Procedure: To measure the ability of test molecules to inhibit AP-1 induced transcriptional activity we utilized an A549 cell which was stably transfected with a plasmid containing 7×AP-1 DNA binding sites (pAP-1-Luc plasmid, Stratagene Co. La Jolla, Calif.) followed by the gene for luciferase. Cells were activated with 10 ng/ml of phorbol myristic acid (PMA) plus or minus test molecules for 7 hours. After 7 hours a luciferase reagent was added to measure luciferase enzymatic activity in the cell. After a 10 minute incubation of luciferase reagent with cells, luminescence was measured in a TopCount luminescence counter. Repression of AP-1 activity was calculated as the percentage decrease in the signal induced by PMA alone. […] IC50s were determined by using standard curve fitting methods such as Excel fit (Microsoft Co.). An IC50 is the test molecule concentration which causes a 50% repression of transcription, i.e. a 50% reduction of AP-1 activity.

[4] = biological target: T3, GAL4 DNA binding domain linked to the ligand binding domain of GR (Homo sapiens, UniProt P04150); assay: Cellular transcriptional assay (HeLa, GAL4-GR LBD, luciferase); type: cell-based
T3 construct: expressed in transfected cells; host or cells: HeLa (stably transfected)
T3 sequence (P04150 524-758 limits assumed): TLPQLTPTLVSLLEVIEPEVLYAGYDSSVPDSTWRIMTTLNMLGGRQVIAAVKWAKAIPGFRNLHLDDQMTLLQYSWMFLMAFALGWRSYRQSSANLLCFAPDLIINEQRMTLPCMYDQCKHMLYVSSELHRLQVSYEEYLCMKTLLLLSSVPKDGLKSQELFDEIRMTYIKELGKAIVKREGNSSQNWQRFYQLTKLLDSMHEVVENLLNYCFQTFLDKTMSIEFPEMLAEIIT
Procedure: In order to measure the ability of compounds to induce DNA binding and transcriptional activation in cells the following assay was performed. A HeLa cell line was stably transfected with a gene expressing a fusion protein consisting of the GAL4 DNA binding domain linked to the ligand binding domain of GR. Also transfected into these cells was a DNA binding site for GAL4 (5 repetitions of a 17-mer GAL4 binding site) linked to the beta-globin reporter in front of the luciferase gene. See Eisenmann, G., Cheynel, and Gronemeyer, H. (1995), Quand les cellules scintillent, Biofutur (Le Technoscope), 151: 8. […] After 20 hours the level of luciferase activity was measured using a Steady Glo Luciferase assay system (Promega Co., Madison, Wis.). […] EC50s were calculated by using standard curve fitting methods such as Excel Fit (Microsoft Co., Redmond, Wash.). An EC50 is the test molecule concentration required to cause a 50% stimulation of transcription.

[5] = system: tyrosine amino transferase mRNA; assay: cells; conditions: read-out: EC50 for induction of tyrosine amino transferase mRNA
Procedure: A second assay which measures the ability of compounds to induce the expression of tyrosine amino transferase mRNA in liver cells was also utilized to determine the ability of compounds to induce DNA binding. […] Test molecules were analyzed in the concentration range from 0.1 nM to 40 μM.

displacement of Compound D allowing FITC-dexamethasone to rebind to GR ([2]; Compound D at 200 nM) | inhibition at 0.2 µM ([2]; 200 nM, read-out: inhibition of FITC-dexamethasone binding) | SMILES | inhibition of dexamethasone binding to GR by the compound on its own [1] | IC50 ([3]; Homo sapiens, A549, absence of Compound A) | IC50 ([3]; Homo sapiens, A549, presence of 800 nM Compound A) | inhibition at 0.8 µM ([3]; Homo sapiens, A549, presence of 800 nM Compound A, read-out: percent inhibition) | maximum percent inhibition ([3]; absence of Compound A) | % stimulation ([4]; absence of Compound A) | % stimulation ([4]; presence of Compound A) | EC50 [5]
effective at displacing Compound D | – | Cc1ccc(-c2csc(NC(=O)C3(C)CC4(C#N)c5ccccc5C3c3ccccc34)n2)c2ccccc12 (centres unmarked) [Compound C] | do not inhibit dexamethasone binding; also recorded: do not inhibit dexamethasone on their own | – | – | – | – | – | – | –
– | ~50% | Cc1ccc(-c2csc(NC(=O)C3(C)CC4(C#N)c5ccccc5C3c3ccccc34)n2)c2ccccc12 (centres unmarked) [Compound D] | does inhibit dexamethasone | – | – | – | – | – | – | –
– | – | C[C@@H]1C[C@H]2[C@@H]3CCC4=CC(=O)C=C[C@]4(C)[C@@]3(F)[C@@H](O)C[C@]2(C)[C@@]1(O)C(=O)CO [dexamethasone] | – | 3.4 nM | 1.2 nM | 100% | 75% | 100% | 47% | ~50 nM
